Values quoted from earlier work, collected in patent publication US8895065B2, “Single unit oral dose pharmaceutical composition comprising levodopa, carbidopa and entacapone or salts thereof” (Wockhardt Ltd., priority 2008, dated 2014).

solubility in water	SMILES
slightly soluble	C[C@@](Cc1ccc(O)c(O)c1)(NN)C(=O)O [Carbidopa]
slightly soluble	N[C@@H](Cc1ccc(O)c(O)c1)C(=O)O [Levodopa, (−)-L-α-amino-β-(3,4-dihydroxybenzene)propanoic acid]
